Assay results from PubChem BioAssay AID298 (DTP/NCI, 2004).
“And” between values parts separate entries of the source, which are not always exact repeats. Equal entries are not always repeated. Inconclusive results are not listed.

Tested on: MX-1 breast xenograft, intrarenal, nude mice, tumor weight
Test: NCI In Vivo Anticancer Drug Screen. Data for tumor model Human Mammary Carcinoma MX-1 Xenograft (intrarenal inoculation) in NU/NU BALB/C (nude) mice
Details: endpoint: mean tumor weight change, higher = larger tumour
In short: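 Efficacy in vivo: tumor measurement or survival of treated animals divided by that of vehicle-dosed controls.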

[1] = dose: 150.0 mg/kg/injection, schedule: Q04DX003 (ip), vehicle: DMSO
[2] = dose: 150.0 mg/kg/injection, schedule: Q04DX003 (sc), vehicle: saline
[3] = dose: 300.0 mg/kg/injection, schedule: Q04DX003 (sc), vehicle: saline
[4] = dose: 600.0 mg/kg/injection, schedule: Q04DX003 (sc), vehicle: saline
[5] = dose: 12.5 mg/kg/injection, schedule: Q04DX003 (ip), vehicle: water
[6] = dose: 25.0 mg/kg/injection, schedule: Q04DX003 (ip), vehicle: water
[7] = dose: 50.0 mg/kg/injection, schedule: Q04DX003 (ip), vehicle: water
[8] = dose: 100.0 mg/kg/injection, schedule: Q04DX003 (ip), vehicle: water
[9] = dose: 600.0 mg/kg/injection, schedule: Q04DX003 (sc), vehicle: saline with Tween-80
[10] = dose: 600.0 mg/kg/injection, schedule: Q04DX003 (sc), vehicle: Klucel (hydroxypropylcellulose) (HPC)
[11] = dose: 150.0 mg/kg/injection, schedule: Q04DX003 (ip), vehicle: Klucel (hydroxypropylcellulose) (HPC)
[12] = dose: 300.0 mg/kg/injection, schedule: Q04DX003 (ip), vehicle: Klucel (hydroxypropylcellulose) (HPC)
[13] = dose: 600.0 mg/kg/injection, schedule: Q04DX003 (ip), vehicle: Klucel (hydroxypropylcellulose) (HPC)
[14] = dose: 1200.0 mg/kg/injection, schedule: Q04DX003 (sc), vehicle: Klucel (hydroxypropylcellulose) (HPC)
[15] = dose: 2400.0 mg/kg/injection, schedule: Q04DX003 (sc), vehicle: Klucel (hydroxypropylcellulose) (HPC)

Which results are given for `Oc1cc(O)cc(/C=C/c2ccc(O)c(O)c2)c1`?
T/C (dose: 25.0 mg/kg/injection, schedule: Q04DX003 (ip), vehicle: DMSO): 90 % of control; T/C (dose: 37.5 mg/kg/injection, schedule: Q04DX003 (ip), vehicle: DMSO): 123 % of control; T/C (dose: 50.0 mg/kg/injection, schedule: Q04DX003 (ip), vehicle: DMSO): 69 % of control; T/C (dose: 75.0 mg/kg/injection, schedule: Q04DX003 (ip), vehicle: DMSO): 71 % of control; T/C (dose: 100.0 mg/kg/injection, schedule: Q04DX003 (ip), vehicle: DMSO): 48 % of control; T/C [1]: 67 % of control

For `CC(=O)C(=O)O.CC(=O)C(=O)O.[NH-]C1CCCCC1[NH-].[Pt+2]` (stereo unspecified), which T/C (dose: 12.5 mg/kg/injection, schedule: Q04DX003 (sc), vehicle: other) is on record?
The T/C was 72 % of control.

And the T/C (dose: 25.0 mg/kg/injection, schedule: Q04DX003 (sc), vehicle: other)?
Its T/C is 17 % of control.

And the T/C (dose: 50.0 mg/kg/injection, schedule: Q04DX003 (sc), vehicle: other)?
Its T/C is -78 % of control.

What does the source list for `CCCCCCCCCCCCCCCCP(=O)(OCCOCCCCCC)OCCOCCCCCC`?
T/C [2]: 102 % of control; T/C [3]: 97 % of control; T/C [4]: 70 % of control

Which T/C (dose: 37.5 mg/kg/injection, schedule: Q04DX003 (sc), vehicle: water) does the source give for `NC(CNC(=O)CBr)C(=O)O` (stereo unspecified) here?
Its T/C is 82 % of control.

And the T/C (dose: 150.0 mg/kg/injection, schedule: Q04DX003 (sc), vehicle: water)?
Its T/C is 54 % of control.

What does the source list for `CCOc1ccc(C(C)c2cc3c(cc2OC)OCO3)cc1` (stereo unspecified)?
T/C (dose: 150.0 mg/kg/injection, schedule: Q04DX003 (ip), vehicle: distilled water + Tween-80): 93 % of control; T/C (dose: 300.0 mg/kg/injection, schedule: Q04DX003 (ip), vehicle: distilled water + Tween-80): 56 % of control; T/C (dose: 600.0 mg/kg/injection, schedule: Q04DX003 (ip), vehicle: distilled water + Tween-80): 27 % of control

With `Cc1cccc(OCC(O)CN2CC2)c1` (stereo unspecified) as the molecule, how does the T/C (dose: 50.0 mg/kg/injection, schedule: Q04DX003 (ip), vehicle: saline with Tween-80) read?
The T/C was 63 % of control.

What about the T/C (dose: 100.0 mg/kg/injection, schedule: Q04DX003 (ip), vehicle: saline with Tween-80) of the same molecule?
The T/C was 62 % of control.

How did the T/C [5] turn out when `[Cl][Pt][Cl].[NH-]C(CO)C(=O)O` (stereo unspecified) was run?
The T/C was 92 % of control.

What about the T/C [6] of the same molecule?
The T/C was 100 % of control.

What about the T/C (dose: 37.5 mg/kg/injection, schedule: Q04DX003 (ip), vehicle: water) of the same molecule?
The T/C was 57 % of control.

What about the T/C [7] of the same molecule?
Its T/C is 100 % of control.

What about the T/C (dose: 75.0 mg/kg/injection, schedule: Q04DX003 (ip), vehicle: water) of the same molecule?
The T/C was 11 % of control.

And the T/C [8]?
Its T/C is 16 % of control.

For `COC(=O)Nc1nc2ccc(C3(c4ccc(F)cc4)OCCO3)cc2[nH]1`, which T/C [9] is on record?
Its T/C is 190 % of control.

Which T/C [10] does the source give for `CN=C(NC#N)NCCSCc1nc[nH]c1C` here?
The T/C was 108 % of control.

How did the T/C (dose: 37.5 mg/kg/injection, schedule: Q04DX003 (sc), vehicle: saline with Tween-80) turn out when `c1ccc2c(c1)-c1ccccc1C1NC21` (stereo unspecified) was run?
Its T/C is 60 % of control.

And the T/C (dose: 75.0 mg/kg/injection, schedule: Q04DX003 (sc), vehicle: saline with Tween-80)?
The T/C was 30 % of control.

What does the source list for `O=C(O)CC(=O)O.[NH-]CC[NH-].[Pt+2]`?
T/C (dose: 25.0 mg/kg/injection, schedule: Q01DX010 (sc), vehicle: dextrose): -6 % of control; T/C (dose: 50.0 mg/kg/injection, schedule: Q01DX010 (sc), vehicle: dextrose): -85 % of control

What does the source list for `CCCCCc1cc(/C=C2/N=C(c3ccc[nH]3)C=C2OC)[nH]c1C`?
T/C (dose: 16.0 mg/kg/injection, schedule: Q04DX003 (sc), vehicle: saline with Tween-80): 93 % of control; T/C (dose: 32.0 mg/kg/injection, schedule: Q04DX003 (sc), vehicle: saline with Tween-80): 93 % of control; T/C (dose: 64.0 mg/kg/injection, schedule: Q04DX003 (sc), vehicle: saline with Tween-80): 75 % of control; T/C (dose: 128.0 mg/kg/injection, schedule: Q04DX003 (sc), vehicle: saline with Tween-80): 46 % of control

With `CC[C@](C)(O)C(=O)O[C@H]1C(=O)O[C@@H]2C[C@H]3C(C)=CC(=O)[C@@H](O)[C@]3(C)[C@H]3[C@@]4(O)OC[C@]32[C@@H]1[C@@H](C)[C@H]4O` as the molecule, how does the T/C (dose: 0.25 mg/kg/injection, schedule: Q01DX010 (sc), vehicle: Klucel (hydroxypropylcellulose) (HPC)) read?
Its T/C is 23 % of control.

What about the T/C (dose: 0.5 mg/kg/injection, schedule: Q01DX010 (sc), vehicle: Klucel (hydroxypropylcellulose) (HPC)) of the same molecule?
The T/C was 2 % of control.

With `COC1C(OC(=O)/C=C/C=C/C=C/C=C/C(=O)O)CCC2(CO2)C1C1(C)OC1CC=C(C)C` (stereo unspecified) as the molecule, how does the T/C [2] read?
The T/C was 102 % of control.

What about the T/C [3] of the same molecule?
The T/C was 96 % of control.

And the T/C [4]?
Its T/C is 62 % of control.

Which T/C (dose: 12.5 mg/kg/injection, schedule: Q04DX003 (ip), vehicle: Klucel (hydroxypropylcellulose) (HPC)) does the source give for `CC1=CCCC2C1(C)CCC(C)C2(C)Cc1cc(O)ccc1O` (stereo unspecified) here?
Its T/C is 84 % of control.

What about the T/C (dose: 25.0 mg/kg/injection, schedule: Q04DX003 (ip), vehicle: Klucel (hydroxypropylcellulose) (HPC)) of the same molecule?
The T/C was 76 % of control.

What about the T/C (dose: 50.0 mg/kg/injection, schedule: Q04DX003 (ip), vehicle: Klucel (hydroxypropylcellulose) (HPC)) of the same molecule?
The T/C was 86 % of control.

And the T/C (dose: 100.0 mg/kg/injection, schedule: Q04DX003 (ip), vehicle: Klucel (hydroxypropylcellulose) (HPC))?
Its T/C is 66 % of control.

For `CC(=O)Oc1c[nH]c(=O)[nH]c1=O`, which T/C (dose: 300.0 mg/kg/injection, schedule: Q04DX003 (sc), vehicle: distilled water + Tween-80) is on record?
Its T/C is 116 % of control.

And the T/C (dose: 600.0 mg/kg/injection, schedule: Q04DX003 (sc), vehicle: distilled water + Tween-80)?
Its T/C is 118 % of control.

And the T/C (dose: 1200.0 mg/kg/injection, schedule: Q04DX003 (sc), vehicle: distilled water + Tween-80)?
The T/C was 102 % of control.

And the T/C (dose: 2400.0 mg/kg/injection, schedule: Q04DX003 (sc), vehicle: distilled water + Tween-80)?
Its T/C is 83 % of control.

For `CCCC1(c2ccccc2)C(=O)NCNC1=O`, which T/C [11] is on record?
Its T/C is 92 % of control.

And the T/C [12]?
Its T/C is 95 % of control.

And the T/C [13]?
Its T/C is 88 % of control.

And the T/C (dose: 1200.0 mg/kg/injection, schedule: Q04DX003 (ip), vehicle: Klucel (hydroxypropylcellulose) (HPC))?
The T/C was 55 % of control.

With `O=C1N[C@H]2[C@H](CS[C@H]2CCCCC(=O)N(CCP(c2ccccc2)c2ccccc2)CCP(c2ccccc2)c2ccccc2)N1` as the molecule, how does the T/C [10] read?
The T/C was 108 % of control.

And the T/C [14]?
Its T/C is 97 % of control.

And the T/C [15]?
Its T/C is 115 % of control.

For `O=C1CNC(=O)N1CN1CCOCC1`, which T/C [11] is on record?
The T/C was 83 % of control.

And the T/C [12]?
Its T/C is 89 % of control.

What about the T/C [13] of the same molecule?
Its T/C is 81 % of control.

Which results are given for `COC(=O)C1(F)C(=O)NC(=O)NC1OC` (stereo unspecified)?
T/C [11]: 85 % of control; T/C [12]: 93 % of control; T/C [13]: 43 % of control

What does the source list for `Cc1cc(N/N=C/c2ccccn2)nc2ccccc12`?
T/C (dose: 300.0 mg/kg/injection, schedule: Q04DX003 (sc), vehicle: Klucel (hydroxypropylcellulose) (HPC)): 74 % of control; T/C [10]: 73 % of control; T/C [14]: 43 % of control; T/C [15]: 68 % of control

Which results are given for `CSc1ncnc2c1ncn2C1OC(CO)C(O)C1O` (stereo unspecified)?
T/C (dose: 75.0 mg/kg/injection, schedule: Q04DX003 (sc), vehicle: saline + alcohol): 1 % of control; T/C (dose: 150.0 mg/kg/injection, schedule: Q04DX003 (sc), vehicle: saline + alcohol): -97 % of control

With `N#Cc1ccc(NN=O)nc1` as the molecule, how does the T/C (dose: 12.5 mg/kg/injection, schedule: Q04DX003 (ip), vehicle: other) read?
Its T/C is 95 % of control.

And the T/C [5]?
The T/C was 38 % of control and 41 % of control.

And the T/C (dose: 25.0 mg/kg/injection, schedule: Q04DX003 (ip), vehicle: other)?
The T/C was 20 % of control.

What about the T/C [6] of the same molecule?
Its T/C is 7 % of control and 9 % of control.

What about the T/C (dose: 50.0 mg/kg/injection, schedule: Q04DX003 (ip), vehicle: other) of the same molecule?
Its T/C is 4 % of control.

And the T/C [7]?
The T/C was 1 % of control and 12 % of control.

What about the T/C (dose: 100.0 mg/kg/injection, schedule: Q04DX003 (ip), vehicle: other) of the same molecule?
The T/C was -92 % of control.

What about the T/C [8] of the same molecule?
Its T/C is -86 % of control.

How did the T/C (dose: 300.0 mg/kg/injection, schedule: Q04DX003 (sc), vehicle: saline with Tween-80) turn out when `C[C@]12CC[C@@H]3c4ccc(OC(=O)Cc5ccc(N(CCCl)CCCl)cc5)cc4CC[C@H]3[C@@H]1CC[C@@H]2OC(=O)Cc1ccc(N(CCCl)CCCl)cc1` was run?
The T/C was 98 % of control.

And the T/C [9]?
The T/C was 24 % of control.

And the T/C (dose: 1200.0 mg/kg/injection, schedule: Q04DX003 (sc), vehicle: saline with Tween-80)?
Its T/C is 7 % of control.

How did the T/C [1] turn out when `COc1ccc(-c2cc(C(=O)Nc3cc(C(F)(F)F)cc(C(F)(F)F)c3)c3ccccc3n2)cc1` was run?
The T/C was 103 % of control.

What about the T/C (dose: 300.0 mg/kg/injection, schedule: Q04DX003 (ip), vehicle: DMSO) of the same molecule?
The T/C was 70 % of control.

What about the T/C (dose: 600.0 mg/kg/injection, schedule: Q04DX003 (ip), vehicle: DMSO) of the same molecule?
The T/C was 78 % of control.
